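Each compound was tested at five concentrations against cells in 96-well plates for 48 hours. GI50 = concentration required for 50% inhibition of growth.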 Active and inactive are the calls of the source. No stated cut-off is given here; in the data, active = GI50 up to about 1.1 µM and inactive = higher.
Tests used:
Test in all cases: NCI anticancer screen, dose series, 48 h
786-0 = test system: 786-0
A498 = test system: A498
A549 = test system: A549
ACHN = test system: ACHN
CAKI-1 = test system: CAKI-1
CCRF-CEM = test system: CCRF-CEM
COLO 205 = test system: COLO 205
DLD-1 = test system: DLD-1
DMS-114 = test system: DMS-114
DMS-273 = test system: DMS-273
EKVX = test system: EKVX
HCC 2998 = test system: HCC 2998
HCT-116 = test system: HCT-116
HCT-15 = test system: HCT-15
HL-60 = test system: HL-60
HOP-18 = test system: HOP-18
HOP-62 = test system: HOP-62
HOP-92 = test system: HOP-92
HT-29 = test system: HT-29
IGROV-1 = test system: IGROV-1
K562 = test system: K562
KM-20L2 = test system: KM-20L2
KM12 = test system: KM12
LOX IMVI = test system: LOX IMVI
LXFL 529 = test system: LXFL 529
M14 = test system: M14
M19-MEL = test system: M19-MEL
MOLT-4 = test system: MOLT-4
Malme-3M = test system: Malme-3M
NCI-H226 = test system: NCI-H226
NCI-H460 = test system: NCI-H460
NCI-H522 = test system: NCI-H522
OVCAR-3 = test system: OVCAR-3
OVCAR-4 = test system: OVCAR-4
OVCAR-8 = test system: OVCAR-8
RPMI-8226 = test system: RPMI-8226
SF-268 = test system: SF-268
SF-295 = test system: SF-295
SF-539 = test system: SF-539
SK-MEL-5 = test system: SK-MEL-5
SK-OV-3 = test system: SK-OV-3
SN12C = test system: SN12C
SNB-19 = test system: SNB-19
SNB-75 = test system: SNB-75
SNB-78 = test system: SNB-78
SW-620 = test system: SW-620
TK-10 = test system: TK-10
U-251 = test system: U-251
UACC-257 = test system: UACC-257
UACC-62 = test system: UACC-62
UO-31 = test system: UO-31
XF498 = test system: XF498

Q: Which GI50 (786-0) does the source give for `O=c1[nH]c2c(O)cccc2c2cc3c(c(O)c12)OCO3` [NARCIPRIMINE] here?
A: 25.5 µM (inactive)

Q: And the GI50 (A498)?
A: 21.2 µM (inactive)

Q: And the GI50 (A549)?
A: 25.5 µM (inactive)

Q: And the GI50 (ACHN)?
A: 15.8 µM (inactive)

Q: What about the GI50 (CAKI-1) of the same compound?
A: 20.9 µM (inactive)

Q: What about the GI50 (CCRF-CEM) of the same compound?
A: 10 µM (inactive)

Q: What about the GI50 (COLO 205) of the same compound?
A: 13.1 µM (inactive)

Q: What about the GI50 (DLD-1) of the same compound?
A: 14.6 µM (inactive)

Q: And the GI50 (DMS-114)?
A: 19.1 µM (inactive)

Q: And the GI50 (DMS-273)?
A: 18.7 µM (inactive)

Q: And the GI50 (EKVX)?
A: 25.8 µM (inactive)

Q: What about the GI50 (HCC 2998) of the same compound?
A: 19.5 µM (inactive)

Q: What about the GI50 (HCT-116) of the same compound?
A: 13.8 µM (inactive)

Q: What about the GI50 (HCT-15) of the same compound?
A: 22.5 µM

Q: What about the GI50 (HL-60) of the same compound?
A: 6.44 µM (inactive)

Q: And the GI50 (HOP-18)?
A: 0.0524 µM (active)

Q: What about the GI50 (HOP-62) of the same compound?
A: 19.2 µM (inactive)

Q: What about the GI50 (HOP-92) of the same compound?
A: 13.4 µM (inactive)

Q: What about the GI50 (HT-29) of the same compound?
A: 21.2 µM (inactive)

Q: What about the GI50 (IGROV-1) of the same compound?
A: 26.1 µM (inactive)

Q: What about the GI50 (K562) of the same compound?
A: 17.5 µM (inactive)

Q: What about the GI50 (KM-20L2) of the same compound?
A: 12.8 µM (inactive)

Q: What about the GI50 (KM12) of the same compound?
A: 16.7 µM (inactive)

Q: What about the GI50 (LOX IMVI) of the same compound?
A: 11 µM (inactive)

Q: What about the GI50 (LXFL 529) of the same compound?
A: 18.3 µM (inactive)

Q: What about the GI50 (M14) of the same compound?
A: 20.4 µM (inactive)

Q: And the GI50 (M19-MEL)?
A: 20.3 µM (inactive)

Q: What about the GI50 (MOLT-4) of the same compound?
A: 16.8 µM (inactive)

Q: And the GI50 (Malme-3M)?
A: 22.8 µM (inactive)

Q: And the GI50 (NCI-H226)?
A: 17.4 µM (inactive)

Q: What about the GI50 (NCI-H460) of the same compound?
A: 14.6 µM (inactive)

Q: What about the GI50 (NCI-H522) of the same compound?
A: 19.3 µM (inactive)

Q: And the GI50 (OVCAR-3)?
A: 21.5 µM (inactive)

Q: What about the GI50 (OVCAR-4) of the same compound?
A: 11.9 µM (inactive)

Q: What about the GI50 (OVCAR-8) of the same compound?
A: 23.6 µM (inactive)

Q: What about the GI50 (RPMI-8226) of the same compound?
A: 25 µM (inactive)

Q: What about the GI50 (SF-268) of the same compound?
A: 23.2 µM (inactive)

Q: And the GI50 (SF-295)?
A: 20.1 µM (inactive)

Q: What about the GI50 (SF-539) of the same compound?
A: 18 µM (inactive)

Q: And the GI50 (SK-MEL-5)?
A: 17.1 µM (inactive)

Q: What about the GI50 (SK-OV-3) of the same compound?
A: 23.6 µM (inactive)

Q: What about the GI50 (SN12C) of the same compound?
A: 20.7 µM (inactive)

Q: And the GI50 (SNB-19)?
A: 13.6 µM (inactive)

Q: And the GI50 (SNB-75)?
A: 20.8 µM (inactive)

Q: What about the GI50 (SNB-78) of the same compound?
A: 21.3 µM (inactive)

Q: And the GI50 (SW-620)?
A: 26.6 µM (inactive)

Q: What about the GI50 (TK-10) of the same compound?
A: 42.7 µM (inactive)

Q: And the GI50 (U-251)?
A: 16 µM (inactive)

Q: And the GI50 (UACC-257)?
A: 19.7 µM (inactive)

Q: What about the GI50 (UACC-62) of the same compound?
A: 18.3 µM (inactive)

Q: What about the GI50 (UO-31) of the same compound?
A: 17.1 µM (inactive)

Q: And the GI50 (XF498)?
A: 15.6 µM (inactive)
